# Results taken from patent publication US20070212339A1, “Use Of At Least One Effector Of Glutathione Metabolism Together With Alpha-Lipoic Acid For The Treatment Of Chronically Obstructive Lung Diseases” (ESPARMA GMBH, priority 2003, published 2007).
# Assays:
# [1] = test system: primary alveolar macrophages of COPD patients; assay: Cellular thiol status (CMFDA) of primary alveolar macrophages of COPD patients; format: cell-based, human; settings: for Thiols, intracellular (CMFDA)[%]: RPMI1640
# Protocol: The intercellular thiol content at the individual cell level was determined using 5-chloromethylfluorescein diacetate (CMFDA) in flow cytofluorimetry [Cytometry 1994; 15:349-358, Cytometry 1997; 29:76-82]. CMFDA which is primarily non-fluorogenic is here passively absorbed by the cell. Via the chloromethyl residue there is binding to cytoplasmatic thiol groups. After the acetate residues have been split off by unspecific cellular esterases, this complex which is now cell membrane-impermeable becomes fluorogenic at an excitation wavelength of λex=490 nm with an emission wavelength of λem=520 nm. The mean fluorescence intensity of the sample (10,000 cells) is directly proportional to the concentration of the intracellular thiol groups. Alveolar macrophages were isolated from the bronchoalveolar lavage fluid of COPD patients, taken up in cell culture medium and incubated in a gassing incubator at 37° C., a relative air humidity of 98% and a relative air-CO2 content of 7.5%. In order to check the influence of the combinations used according to the invention on the thiol status of the […] macrophages, in each case one fraction was treated with α-lipoic acid, the effector of glutathione metabolism ambroxol or with the combination of α-lipoic acid/ambroxol, whilst another fraction was used in each case as an untreated control. Untreated alveolar macrophages from healthy, non-COPD patients served as the normal comparison. The cellular thiol status was determined by means of the measuring method described under 1. The effect of the combination of α-lipoic acid and ambroxol in time kinetics over 96 hours in relation to healthy cells is shown in Table 5. In a test assembly identical to that of Example 3, alveolar macrophages from COPD patients were in each case treated with α-lipoic acid, the effector silibinin or with the combination of α-lipoic acid/silibinin, whilst another fraction was again used in each case as an untreated control. Untreated alveolar macrophages from healthy, non-COPD patients served here, too, as the normal comparison. The cellular thiol status was determined by means of the measuring method described under 1. The effect of the combination of α-lipoic acid and silibinin in time kinetics over 96 hours in relation to healthy cells is shown in Table 6.
# [2] = test system: primary alveolar macrophages of COPD patients; assay: Phagocytosis rate of primary alveolar macrophages of COPD patients (cytofluorimetric test with opsonized fluorochrome-marked bacteria); format: cell-based, human; settings: for Phagoburst (mfi) [%]: RPMI1640; for phagocytosis rate: monosubstances, by comparison with the untreated control
# Protocol: In a similar procedure to the one described in Example 3, alveolar macrophages were isolated and cultivated ex vivo. The phagocytosis efficiency was determined by a cytofluorimetric test at the single-cell level. The macrophages were co-cultivated with opsonized and fluorochrome-marked bacteria. The amount of bacteria absorbed in a defined period of time was assessed quantitatively via the fluorescence intensity in the macrophages and counted as the measurement for their capacity for phagocytosis. The influence of the combinations used according to the invention on the capacity of the […] macrophages for phagocytosis after a treatment period of up to 96 hours is shown in Table 7.
# [3] = test system: alveolar macrophage cell line CRL 21-92 (NR8383); assay: Intracellular thiol content (CMFDA, flow cytofluorimetry) of artificially thiol-depleted alveolar macrophage cell line; format: cell-based; settings: αLA 10.0 μg/ml alone, TDM
# Protocol: (§1) The established normal alveolar macrophage cell line CRL 21-92 (NR8383 [AgC11x3A; NR8383.1]) was used. The cells were taken up in special cell culture media and incubated in a gassing incubator at 37° C., a relative air humidity of 98% and a relative air-CO2 content of 5%. In order to check the influence of the combinations used according to the invention on the thiol status of thiol-deficient alveolar macrophages, these were artificially thiol-depleted. This came about by cultivation in thiol-deficient media (TDM) according to tested methods [Free Radic Biol Med 2000; 29:1160-1165]. Comparative cultures using complete media (RPMT 1640) were used for defining the best possible normal value under culture conditions. The intercellular thiol content at the individual cell level was determined using 5-chloromethylfluorescein diacetate (CMFDA) in flow cytofluorimetry [Cytometry 1994; 15:349-358, Cytometry 1997; 29:76-82]. CMFDA which is primarily non-fluorogenic is here passively absorbed by the cell. Via the chloromethyl residue there is binding to cytoplasmatic thiol groups. After the acetate residues have been split off by unspecific cellular esterases, this complex which is now cell membrane-impermeable becomes fluorogenic at an excitation wavelength of λex=490 nm with an emission wavelength of λem=520 nm. The mean fluorescence intensity of the sample (10,000 cells) is directly proportional to the concentration of the intracellular thiol groups. The expression of membrane-bound thiol groups was also determined by means of flow cytofluorimetry. Chloromethyl tetramethyl rhodamine (CMTMR) was used as the thiol conjugate under conditions of a blocked membrane potential and an inhibited diffusion capacity of the cells, [Exp Hematol 1997; 25(7): 601-607]. The fluorescence intensity of the bound fluorochrome molecules on the cell membrane is here again proportional to the quantity of thiol groups on the cell surface. Immortalised alveolar macrophages were artificially thiol-depleted in the above-described test assembly. The influence of the substances used according to the invention was checked over a period of 96 hours by measuring the intracellular thiol content and the membrane expression of thiols. Immortalised alveolar macrophages were artificially thiol-depleted in the test assembly described in Example 1. The influence of the substances used according to the invention was checked over a period of 96 hours by measuring the intracellular thiol content and the membrane expression of thiols.
# [4] = test system: alveolar macrophage cell line CRL 21-92 (NR8383); assay: Membrane-bound thiol expression (CMTMR, flow cytofluorimetry) of artificially thiol-depleted alveolar macrophage cell line; format: cell-based; settings: αLA 10.0 μg/ml alone, TDM
# Protocol: as §1, with “conditions.” for “conditions. The intercellular thiol content at the individual cell level was determined using 5-chloromethylfluorescein diacetate (CMFDA) in flow cytofluorimetry [Cytometry 1994; 15:349-358, Cytometry 1997; 29:76-82]. CMFDA which is primarily non-fluorogenic is here passively absorbed by the cell. Via the chloromethyl residue there is binding to cytoplasmatic thiol groups. After the acetate residues have been split off by unspecific cellular esterases, this complex which is now cell membrane-impermeable becomes fluorogenic at an excitation wavelength of λex=490 nm with an emission wavelength of λem=520 nm. The mean fluorescence intensity of the sample (10,000 cells) is directly proportional to the concentration of the intracellular thiol groups.”
structure (smiles),measurement,setting,value
"Nc1c(Br)cc(Br)cc1CN[C@H]1CC[C@H](O)CC1 [Ambroxol, ambroxol]","Thiols, intracellular (CMFDA)[%]","[1]; 24 h, Ambroxol [10.0 μ/ml] alone",67.4 ± 16.4%
same,"Thiols, intracellular (CMFDA)[%]","[1]; 48 h, Ambroxol [10.0 μ/ml] alone",61.8 ± 11.5%
same,"Thiols, intracellular (CMFDA)[%]","[1]; 72 h, Ambroxol [10.0 μ/ml] alone",61.6 ± 20.8%
same,"Thiols, intracellular (CMFDA)[%]","[1]; 96 h, Ambroxol [10.0 μ/ml] alone",67.1 ± 8.4%
same,cellular thiol expression,"[1]; Example 3, monosubstances",only a marginal rise
same,Phagoburst (mfi) [%],"[2]; 24 h, Ambroxol 10 μM alone",53.3 ± 10.9%
same,Phagoburst (mfi) [%],"[2]; 48 h, Ambroxol 10 μM alone",59.2 ± 12.4%
same,Phagoburst (mfi) [%],"[2]; 72 h, Ambroxol 10 μM alone",55.2 ± 19.2%
same,Phagoburst (mfi) [%],"[2]; 96 h, Ambroxol 10 μM alone",61.9 ± 22.1%
same,phagocytosis rate,[2],had not altered
"COc1cc(C2Oc3cc([C@H]4Oc5cc(O)cc(O)c5C(=O)[C@@H]4O)ccc3OC2CO)ccc1O (stereo partly shown) [Silibinin, silibinin]","Thiols, intracellular (CMFDA)[%]","[1]; 24 h, Silibinin 70 μg/ml alone",56.1 ± 12.4%
same,"Thiols, intracellular (CMFDA)[%]","[1]; 48 h, Silibinin 70 μg/ml alone",59.0 ± 56.8%
same,"Thiols, intracellular (CMFDA)[%]","[1]; 72 h, Silibinin 70 μg/ml alone",44.7 ± 14.0%
same,"Thiols, intracellular (CMFDA)[%]","[1]; 96 h, Silibinin 70 μg/ml alone",49.4 ± 14.5%
same,Phagoburst (mfi) [%],"[2]; 24 h, Silibinin 70.0 μg/ml alone",55.1 ± 12.2 %
same,Phagoburst (mfi) [%],"[2]; 48 h, Silibinin 70.0 μg/ml alone",57.6 ± 8.5%
same,Phagoburst (mfi) [%],"[2]; 72 h, Silibinin 70.0 μg/ml alone",54.2 ± 13.8%
same,Phagoburst (mfi) [%],"[2]; 96 h, Silibinin 70.0 μg/ml alone",59.9 ± 21.2%
"O=C(O)CCCCC1CCSS1 (stereo not drawn) [αLA, α-lipoic acid]","Thiols, intracellular (CMFDA)[%]","[3]; Table 1, 24 h",70.2 ± 8.4%
same,"Thiols, intracellular (CMFDA)[%]","[3]; Table 1, 48 h",58.9 ± 10.4%
same,"Thiols, intracellular (CMFDA)[%]","[3]; Table 1, 72 h",78.1 ± 30.0%
same,"Thiols, intracellular (CMFDA)[%]","[3]; Table 1, 96 h",72.5 ± 19.1%
same,"Thiols, intracellular (CMFDA)[%]","[3]; Table 3, 24 h",69.2 ± 28.2%
same,"Thiols, intracellular (CMFDA)[%]","[3]; Table 3, 48 h",91.1 ± 16.6%
same,"Thiols, intracellular (CMFDA)[%]","[3]; Table 3, 72 h",88.6 ± 26.2%
same,"Thiols, intracellular (CMFDA)[%]","[3]; Table 3, 96 h",114.8 ± 33.2%
same,"Thiols, in membrane (CMTMR)[%]","[4]; Table 2, 24 h",91.1 ± 66.3%
same,"Thiols, in membrane (CMTMR)[%]","[4]; Table 2, 48 h",165.5 ± 36.3%
same,"Thiols, in membrane (CMTMR)[%]","[4]; Table 2, 72 h",82.3 ± 42.1%
same,"Thiols, in membrane (CMTMR)[%]","[4]; Table 2, 96 h",118.9 ± 76.6%
same,"Thiols, in membrane (CMTMR)[%]","[4]; Table 4, 24 h",108.8 ± 38.2%
same,"Thiols, in membrane (CMTMR)[%]","[4]; Table 4, 48 h",126.2 ± 68.6%
same,"Thiols, in membrane (CMTMR)[%]","[4]; Table 4, 72 h",90.7 ± 28.1%
same,"Thiols, in membrane (CMTMR)[%]","[4]; Table 4, 96 h",107.3 ± 57.4%
same,cellular thiol expression,"[1]; Example 3, monosubstances",no effect
same,cellular thiol expression,"[1]; Example 4, monosubstances",no modulation
same,"Thiols, intracellular (CMFDA)[%]","[1]; Table 5, 24 h, αLA 10.0 μg/ml alone",60.3 ± 21.0%
same,"Thiols, intracellular (CMFDA)[%]","[1]; Table 5, 48 h, αLA 10.0 μg/ml alone",58.0 ± 17.0%
same,"Thiols, intracellular (CMFDA)[%]","[1]; Table 5, 72 h, αLA 10.0 μg/ml alone",46.2 ± 19.8%
same,"Thiols, intracellular (CMFDA)[%]","[1]; Table 5, 96 h, αLA 10.0 μg/ml alone",62.4 ± 6.3%
same,"Thiols, intracellular (CMFDA)[%]","[1]; Table 6, 24 h, αLA 10.0 μg/ml alone",60.3 ± 21.0%
same,"Thiols, intracellular (CMFDA)[%]","[1]; Table 6, 48 h, αLA 10.0 μg/ml alone",58.0 ± 68.6%
same,"Thiols, intracellular (CMFDA)[%]","[1]; Table 6, 72 h, αLA 10.0 μg/ml alone",46.2 ± 19.8%
same,"Thiols, intracellular (CMFDA)[%]","[1]; Table 6, 96 h, αLA 10.0 μg/ml alone",62.4 ± 6.3%
same,Phagoburst (mfi) [%],"[2]; 24 h, αLA 10.0 μg/ml alone",59.0 ± 11.7%
same,Phagoburst (mfi) [%],"[2]; 48 h, αLA 10.0 μg/ml alone",60.2 ± 12.4%
same,Phagoburst (mfi) [%],"[2]; 72 h, αLA 10.0 μg/ml alone",50.7 ± 9.0%
same,Phagoburst (mfi) [%],"[2]; 96 h, αLA 10.0 μg/ml alone",64.9 ± 14.3%
same,phagocytosis rate,[2],had not altered
